Values joined by “and” are separate entries in the source; they are usually repeats but may differ in a detail not shown here. Identical values can stand only once.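 Five concentrations, 48 hours, 96-well plates. GI50: concentration for 50% inhibition of growth. TGI denotes the concentration required for complete inhibition of growth.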

Common to all, as to assay: NCI anticancer screen, dose series, 48 h
For test [1], the system named is 786-0 renal.
In test [2] the test system is ACHN renal.
Test [3] has as its system M14 melanoma.
Test [4] has as its system NCI/ADR-RES ovarian.
Test [5] concerns OVCAR-3 ovarian.
For test [6], the system named is SF-295 CNS.
Test [7] has as its system SF-539 CNS.
Test [8] concerns UO-31 renal.
For test [9], the system named is CAKI-1 renal.
Test [10] deals with MOLT-4 leukemia.

On to `COc1cc(O)c(C(C)=O)c(O)c1`, for which the TGI in test [1], in test [2], in test [3], in test [4], in test [5] and in test [6] was > 100 µM in each case. The TGI in test [7] and in test [8] was > 100 µM in each case.
As to `CC1=C(C(=O)CC(=O)C(=O)NC2C3CC4CC(C3)CC2C4)Sc2ccccc2N1` (stereo not given), the TGI in test [1], in [2], in test [9], in [3], in [5] and in test [6] was > 100 µM throughout. Moreover, the TGI in test [7] and in test [8] was > 100 µM each time.
Regarding `COc1ccc(-c2cc(/C=C/C(=O)c3cc(OC)c(OC)c(OC)c3)[nH]n2)cc1OC`, the GI50 in test [1] is 1.5 µM; in test [2], 1.45 µM; in test [3], 1.8 µM; in test [10], 1.81 µM; in test [4], 2.69 µM; in test [5] it was 1.59 µM. The GI50 in [6] is 1.67 µM; in test [7], 0.309 µM; in test [8], 1.27 µM. In addition, the TGI was determined as 2.9 µM in [1]; 2.82 µM in test [2]; 3.69 µM in test [3]; 8.86 µM in test [10]; 37 µM in [4]; 3.15 µM in test [5]. Also, the TGI worked out at 4.26 µM in [6], 1.48 µM in test [7] and 2.59 µM in test [8].
Turning to `CC[P+]1(CC)CCCC1`, the TGI in [1], in test [2], in test [9], in [3], in [10] and in test [5] was > 100 µM in each case. Besides, the TGI in [6], in test [7] and in test [8] was > 100 µM each time.
Regarding `NS(=O)(=O)c1ccc(NC(=O)c2cccn3c(=O)c4ccccc4nc23)cc1`, the TGI in [1], in test [2], in test [9], in test [3], in [10] and in test [5] was > 100 µM in each case. The TGI in test [6], in test [7] and in test [8] was > 100 µM throughout.
Turning to `C/C(=N/NC(=O)CC(=O)N(C(=O)c1ccccc1Cl)c1ccc(C)cc1)c1cc2ccccc2oc1=O`, the TGI in test [1], in test [2], in test [9], in test [3], in test [5] and in test [6] was > 100 µM in each case. The TGI in test [7] and in test [8] was > 100 µM each time.
`Cc1ccc(/C=C2\CNC/C(=C\c3ccc(C)cc3)C2=O)cc1`: the TGI in [1] was 2.79 µM and 3.89 µM; in [2] it was 3.81 µM and 5.93 µM; in test [9] it was 4.49 µM and 7.54 µM; in test [3], 11.2 µM; in test [10], 4.84 µM and 19.2 µM; in test [6] it was > 49.2 µM. Further, the TGI in [7] is 5.04 µM and 19.5 µM; in test [8], 3.14 µM and 3.25 µM. The GI50 in [9] was 1.63 µM; in [10], 1.81 µM; in test [5], 1.27 µM; in [7], 1.53 µM.
On to `COc1ccc(NC(=O)c2sc3nc4c(cc3c2N)CCCC4)cc1`, for which the GI50 in test [1] was 0.36 µM; in test [2], 0.627 µM; in test [3], 0.254 µM; in [10] it was 0.442 µM; in [4], 0.384 µM; in test [5], 0.336 µM. In addition, the values for the GI50 in [6], in [7] and in test [8] were 0.314 µM, 0.372 µM and 0.795 µM, respectively. In addition, the TGI in test [1] is 30.5 µM; in test [2], > 100 µM; in test [3], 1.28 µM; in test [10], 30.5 µM; in test [4], 3.85 µM; in test [5], 3.19 µM. Besides, the values for the TGI in [6], in test [7] and in test [8] were 20.2 µM, 6.52 µM and > 100 µM, respectively.
Regarding `CC(=O)[CH-]C(=O)c1ccccc1.CC(=O)[CH-]C(=O)c1ccccc1.[CH2-]CCC.[CH2-]CCC.[Sn+4]`, the GI50 was 1.09 µM in [1]; 1.49 µM in [2]; 0.322 µM in test [9]; 1.16 µM in test [3]; 0.421 µM in [10]; 1.3 µM in test [5]. Moreover, the GI50 was 1.51 µM in test [6], 1.36 µM in test [7] and 1.37 µM in test [8]. In addition, the TGI stood at 2.28 µM in test [1]; 2.86 µM in test [2]; 1.22 µM in test [9]; 2.62 µM in test [3]; 1.86 µM in test [10]; 2.62 µM in test [5]. In addition, the TGI was 2.87 µM in [6], 2.77 µM in [7] and 2.66 µM in test [8].
`Cc1nnc(N=Nc2c(O)[nH]c3ccccc23)n1N`: the TGI in test [1], in test [2], in test [9], in test [3], in [10] and in [5] was > 100 µM in each case. In addition, the TGI in test [6], in test [7] and in test [8] was > 100 µM in each case.
`COC(=O)[C@H](Cc1ccccc1)NC(=O)c1csc([C@@H](C[C@H](C(C)C)N(C)C(=O)[C@@H](NC(=O)[C@H]2CCCN2C)C2CC2)OC(C)=O)n1`: the GI50 is 0.746 µM in [1]; 1.44 µM in [2]; 0.793 µM in test [9]; 0.281 µM in test [3]; 0.215 µM in test [10]; 8.59 µM in test [4]. The values for the GI50 in test [6], in [7] and in [8] were 0.254 µM, 0.29 µM and 2.17 µM, respectively. Besides, the TGI in test [1], in test [2], in [9], in [3], in test [10] and in test [4] was > 33.3 µM throughout. Moreover, the TGI in [6] was > 33.3 µM; in test [7], 1.55 µM; in test [8], > 27.9 µM.

The record behind these values is PubChem BioAssay (NCI).
